Assay results reported in publication PMC6838683, “Discovery of Human Signaling Systems: Pairing Peptides to G Protein-Coupled Receptors” (Cell, 2019).
Residues, ends and D or L forms follow the SMILES beside them.

What was measured:
[1] = target: T1, OPRK1 (Homo sapiens, UniProt P41145); experiment: β-arrestin recruitment (Tango), known peptide receptors; assay type: cell-based; settings: mean
T1 construct: host or cells: HTLA cells (HEK293-derived)

[2] = target: T2, BB3 (Homo sapiens, UniProt P32247); experiment: Dynamic mass redistribution (DMR), concentration-response; assay type: cell-based
T2 construct: hIL-2Ra signal peptide (N); expressed in transfected cells
T2 sequence (P32247 2-399 limits assumed): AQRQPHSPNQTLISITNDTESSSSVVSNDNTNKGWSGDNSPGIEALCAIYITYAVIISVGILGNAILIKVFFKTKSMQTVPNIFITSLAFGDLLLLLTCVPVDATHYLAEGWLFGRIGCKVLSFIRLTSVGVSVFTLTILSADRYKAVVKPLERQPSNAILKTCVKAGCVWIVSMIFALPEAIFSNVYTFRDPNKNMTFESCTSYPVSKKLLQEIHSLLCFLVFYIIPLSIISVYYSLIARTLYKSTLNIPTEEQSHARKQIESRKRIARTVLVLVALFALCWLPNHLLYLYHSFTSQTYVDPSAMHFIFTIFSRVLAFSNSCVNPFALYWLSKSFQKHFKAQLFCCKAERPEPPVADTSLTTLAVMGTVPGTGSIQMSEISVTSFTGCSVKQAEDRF

[3] = test system: 120 GPCR targets, including all available orphan receptors and 27 known class A peptide receptors; experiment: Peptide library screen, β-arrestin recruitment (Tango, fold change, 10 μM); assay type: cell-based, human; settings: repeat hitters of the peptide library screen; the value names the known receptor(s) confirmed in the β-arrestin recruitment (Tango) screen
How it was run: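 HTLA cells (HEK293 with tTA-dependent luciferase and β-arrestin2-TEV) transiently transfected with Tango GPCR constructs, then stimulated overnight with 10 μM peptides in 1% dFBS medium. Luciferase luminescence read after 15–20 min Bright-Glo incubation at room temperature.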

[4] = target: T2, BB3; experiment: IP1 accumulation (Gq/11), HTRF; assay type: cell-based; settings: BB3, mean, SEM and n
[5] = target: T3, BB3 (Homo sapiens, UniProt P32247); experiment: β-arrestin recruitment (Tango), validation; assay type: cell-based
T3 construct: host or cells: HTLA cells (HEK293-derived)
T3 sequence (P32247 1-399): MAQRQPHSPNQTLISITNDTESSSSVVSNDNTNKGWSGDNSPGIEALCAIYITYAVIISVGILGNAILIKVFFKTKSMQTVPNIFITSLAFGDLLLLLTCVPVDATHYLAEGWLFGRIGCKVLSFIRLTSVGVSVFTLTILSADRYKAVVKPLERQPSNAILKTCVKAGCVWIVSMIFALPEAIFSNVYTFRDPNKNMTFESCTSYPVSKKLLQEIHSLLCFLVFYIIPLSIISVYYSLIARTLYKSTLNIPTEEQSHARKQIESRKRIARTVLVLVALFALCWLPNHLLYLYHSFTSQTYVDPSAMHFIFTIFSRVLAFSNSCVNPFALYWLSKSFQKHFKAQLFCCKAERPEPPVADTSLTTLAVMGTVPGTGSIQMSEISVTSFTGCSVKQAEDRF
Protocol: (§1) The peptide library was additionally screened against 120 GPCR targets in parallel, including all available orphan receptors and 27 known class A peptide receptors using the Tango assay platform ([Kroeze et al., 2015]). Briefly, HTLA cells (a HEK293 cell line stably expressing a tTA-dependent luciferase reporter and a β-arrestin2-TEV fusion gene) were plated 10,000 cells/well in poly-L-lysine–coated clear-bottom white 384-well plates in DMEM supplemented with 10% FBS, 100 U/ml penicillin and 100 μg/ml streptomycin, 2 μg/ml puromycin and 100 μg/ml hygromycin B. 24 hr later, cells were transfected with Tango GPCR constructs using the calcium phosphate method ([Jordan et al., 1996]). The next day, culture medium was changed to DMEM + 1% dFBS and 10 μM peptides were added for overnight stimulation. Bright-Glo solution (Promega) was incubated for 15–20 min at room temperature, and luminescence was counted using a Trilux luminescence counter (Wallac).
(§2) For subsequent peptide validation experiments using Tango assays, HTLA cells were transiently transfected in 10 cm dishes with the receptor of interest using polyethylenimine (PEI) ([Longo et al., 2013]). After 24 hr, 25,000 cells/well were plated in clear bottom, white-walled 384-well plates. Assays were performed as described above, with luminescence measured using an EnSpire 2300 Multimode plate reader (PerkinElmer). Luminescence counts were exported into Excel and were analyzed using GraphPad Prism 7.

[6] = target: T2, BB3; experiment: Real-time receptor internalization (TR-FRET), concentration-response; assay type: cell-based
[7] = target: T4, GPR183 (Homo sapiens, UniProt P32249); experiment: β-arrestin recruitment (Tango), indicative pairing; assay type: cell-based; settings: mean, n = 3
T4 construct: host or cells: HTLA cells (HEK293-derived)
T4 sequence (P32249 whole entry): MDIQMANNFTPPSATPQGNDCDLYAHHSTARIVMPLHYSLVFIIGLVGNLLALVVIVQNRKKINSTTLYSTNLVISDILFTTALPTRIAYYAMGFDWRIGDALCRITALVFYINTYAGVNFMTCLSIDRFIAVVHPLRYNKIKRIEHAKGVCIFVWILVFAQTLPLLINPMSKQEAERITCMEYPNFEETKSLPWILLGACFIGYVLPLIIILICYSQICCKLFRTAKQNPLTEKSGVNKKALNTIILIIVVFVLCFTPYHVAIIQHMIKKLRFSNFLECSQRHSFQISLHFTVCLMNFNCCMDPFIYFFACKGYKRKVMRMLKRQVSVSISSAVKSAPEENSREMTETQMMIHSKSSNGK

[8] = target: T5, NPY5 (Homo sapiens, UniProt Q15761); experiment: β-arrestin recruitment (Tango), known peptide receptors; assay type: cell-based; settings: NPY5R; Emax and pEC50 n.d.; n = 3
T5 construct: host or cells: HTLA cells (HEK293-derived)
T5 sequence (Q15761 1-445): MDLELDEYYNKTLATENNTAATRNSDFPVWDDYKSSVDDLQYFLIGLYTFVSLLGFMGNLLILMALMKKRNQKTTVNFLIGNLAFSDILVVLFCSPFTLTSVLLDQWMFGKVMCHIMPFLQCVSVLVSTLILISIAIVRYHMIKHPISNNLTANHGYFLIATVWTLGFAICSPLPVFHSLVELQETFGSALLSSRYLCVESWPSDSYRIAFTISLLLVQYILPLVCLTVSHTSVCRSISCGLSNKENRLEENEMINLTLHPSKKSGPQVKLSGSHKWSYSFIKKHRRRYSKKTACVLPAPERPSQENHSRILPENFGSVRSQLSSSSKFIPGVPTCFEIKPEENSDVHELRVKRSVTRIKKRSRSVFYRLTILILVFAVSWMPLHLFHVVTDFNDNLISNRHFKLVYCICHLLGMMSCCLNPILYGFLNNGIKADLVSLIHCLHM
Protocol: as §1, §2

[9] = target: T6, MLNR (Homo sapiens, UniProt O43193); experiment: as above; assay type: cell-based; settings: endogenous ligand(s) included in peptide library
T6 construct: host or cells: HTLA cells (HEK293-derived)
T6 sequence (O43193 whole entry): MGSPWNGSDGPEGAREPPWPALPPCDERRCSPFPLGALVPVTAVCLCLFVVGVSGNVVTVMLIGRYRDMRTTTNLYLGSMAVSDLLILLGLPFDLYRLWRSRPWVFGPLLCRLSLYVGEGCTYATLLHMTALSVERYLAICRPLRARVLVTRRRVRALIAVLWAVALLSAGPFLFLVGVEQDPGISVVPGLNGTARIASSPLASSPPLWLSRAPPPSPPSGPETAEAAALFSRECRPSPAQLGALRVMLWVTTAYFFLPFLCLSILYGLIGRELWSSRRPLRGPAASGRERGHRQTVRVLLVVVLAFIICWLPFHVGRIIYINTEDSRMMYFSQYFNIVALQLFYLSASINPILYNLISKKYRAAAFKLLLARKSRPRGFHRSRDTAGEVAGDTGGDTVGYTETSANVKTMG
Text: (§3) Supplement mmc6.xlsx, sheet "Peptide GPCR controls" | column: Confirmed?

[10] = target: T7, GPR161 (Homo sapiens, UniProt Q8N6U8); experiment: β-arrestin recruitment (Tango), indicative pairing; assay type: cell-based; settings: mean, n = 3
T7 construct: host or cells: HTLA cells (HEK293-derived)
T7 sequence (Q8N6U8 whole entry): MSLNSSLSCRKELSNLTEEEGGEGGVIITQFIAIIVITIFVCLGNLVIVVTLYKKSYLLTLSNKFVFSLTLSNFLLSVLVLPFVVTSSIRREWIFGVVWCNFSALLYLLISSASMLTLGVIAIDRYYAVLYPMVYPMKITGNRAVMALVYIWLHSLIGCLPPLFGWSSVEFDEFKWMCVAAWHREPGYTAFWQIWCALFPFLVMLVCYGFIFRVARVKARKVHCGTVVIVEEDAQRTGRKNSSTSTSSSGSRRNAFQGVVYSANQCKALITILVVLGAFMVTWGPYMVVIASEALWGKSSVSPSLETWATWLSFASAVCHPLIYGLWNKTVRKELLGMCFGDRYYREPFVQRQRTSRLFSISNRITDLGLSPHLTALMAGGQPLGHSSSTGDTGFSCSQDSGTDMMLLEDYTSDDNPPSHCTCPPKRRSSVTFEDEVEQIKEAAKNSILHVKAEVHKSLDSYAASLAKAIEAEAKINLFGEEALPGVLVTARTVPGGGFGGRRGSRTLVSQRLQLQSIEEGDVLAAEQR

[11] = test system: NPS; experiment: β-arrestin recruitment (Tango), known peptide receptors; assay type: cell-based, human; settings: NPS receptor, endogenous ligand(s) included in peptide library
Text: as §3

[12] = test system: NTSR1; experiment: as above; assay type: cell-based, human; settings: Neurotensin not cyclized
Text: (§4) Supplement mmc6.xlsx, sheet "Peptide GPCR controls" | column: Confirmed?; Notes

[13] = test system: NTSR2; experiment: as above; assay type: cell-based, human; settings: Neurotensin not cyclized
Text: as §3

[14] = test system: OPRL1; experiment: as above; assay type: cell-based, human; settings: endogenous ligand(s) included in peptide library
Text: as §3

[15] = test system: HCTR2; experiment: as above; assay type: cell-based, human; settings: endogenous ligand(s) included in peptide library
Text: as §3

[16] = target: GPR55 (Homo sapiens, UniProt Q9Y2T6)
GPR55, sequence (Q9Y2T6 whole entry): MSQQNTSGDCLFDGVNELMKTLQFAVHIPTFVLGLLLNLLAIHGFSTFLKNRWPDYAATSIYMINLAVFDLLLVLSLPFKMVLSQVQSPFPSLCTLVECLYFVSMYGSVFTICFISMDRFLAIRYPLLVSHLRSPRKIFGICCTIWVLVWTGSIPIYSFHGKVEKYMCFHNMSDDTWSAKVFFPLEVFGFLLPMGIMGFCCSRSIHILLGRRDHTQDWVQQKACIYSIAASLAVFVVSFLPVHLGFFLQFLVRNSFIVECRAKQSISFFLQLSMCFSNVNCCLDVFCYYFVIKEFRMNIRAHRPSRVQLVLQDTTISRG

[17] = target: GPR1 (Tango construct) (human) (UniProt P46091)
GPR1 (Tango construct) (human), sequence (P46091 whole entry): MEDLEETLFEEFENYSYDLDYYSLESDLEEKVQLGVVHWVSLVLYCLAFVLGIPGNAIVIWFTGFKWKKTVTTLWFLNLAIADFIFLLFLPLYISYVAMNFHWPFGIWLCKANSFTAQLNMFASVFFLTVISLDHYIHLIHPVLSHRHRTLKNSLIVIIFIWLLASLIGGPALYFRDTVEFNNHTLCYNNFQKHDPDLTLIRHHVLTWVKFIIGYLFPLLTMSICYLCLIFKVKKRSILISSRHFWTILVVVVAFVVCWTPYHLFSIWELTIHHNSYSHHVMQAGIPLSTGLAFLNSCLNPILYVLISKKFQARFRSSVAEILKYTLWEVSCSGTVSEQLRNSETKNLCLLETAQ

[18] = target: GPR1 (PathHunter cells) (UniProt P46091)
GPR1 (PathHunter cells), sequence (P46091 whole entry): as above

[19] = test system: NPY4R; experiment: β-arrestin recruitment (Tango), known peptide receptors; assay type: cell-based, human; settings: endogenous ligand(s) included in peptide library
Text: as §3

[20] = test system: PRRP; experiment: as above; assay type: cell-based, human
Text: as §4

[21] = target: human GPCRs; parameters: method as in Guide to Pharmacology database; settings: receptor PRLHR (prlhr_human, P49683); max reported value; ref Guide to Pharmacology database; cited from earlier work
Text: Supplement mmc1.xlsx, sheet "HumanGPCRLigands" | column: pKi_value; pKd_value; pEC50_value; pIC50_value

[22] = target: T8, GPR17 (Homo sapiens, UniProt Q13304); experiment: β-arrestin recruitment (Tango), indicative pairing; assay type: cell-based; settings: mean, n = 3
T8 construct: host or cells: HTLA cells (HEK293-derived)
T8 sequence (Q13304 whole entry): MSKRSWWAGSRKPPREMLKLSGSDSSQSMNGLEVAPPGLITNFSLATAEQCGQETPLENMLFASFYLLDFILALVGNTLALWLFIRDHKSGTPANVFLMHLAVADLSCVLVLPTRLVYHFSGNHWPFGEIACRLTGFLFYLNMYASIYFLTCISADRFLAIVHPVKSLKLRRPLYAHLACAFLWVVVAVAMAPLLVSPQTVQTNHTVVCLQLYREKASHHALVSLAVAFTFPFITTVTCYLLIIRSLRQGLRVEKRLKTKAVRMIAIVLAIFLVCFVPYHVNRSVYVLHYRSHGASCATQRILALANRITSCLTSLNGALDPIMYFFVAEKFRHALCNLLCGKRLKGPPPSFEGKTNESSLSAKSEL

[23] = target: T9, NPSR (Homo sapiens, UniProt Q6W5P4); experiment: β-arrestin recruitment (Tango), known peptide receptors; assay type: cell-based; settings: mean, n = 3
T9 construct: host or cells: HTLA cells (HEK293-derived)
T9 sequence (Q6W5P4 whole entry): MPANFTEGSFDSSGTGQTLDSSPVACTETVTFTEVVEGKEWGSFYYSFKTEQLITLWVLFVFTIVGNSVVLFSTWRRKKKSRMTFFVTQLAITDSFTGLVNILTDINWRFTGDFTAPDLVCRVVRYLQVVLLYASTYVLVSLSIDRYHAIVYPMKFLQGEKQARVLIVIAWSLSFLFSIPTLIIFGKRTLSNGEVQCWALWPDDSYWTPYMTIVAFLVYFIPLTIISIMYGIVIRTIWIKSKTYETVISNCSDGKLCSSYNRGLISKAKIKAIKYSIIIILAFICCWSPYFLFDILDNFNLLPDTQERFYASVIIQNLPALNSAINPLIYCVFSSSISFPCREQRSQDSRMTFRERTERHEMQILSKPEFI
Text: (§5) Supplement mmc7.xlsx, sheet "Peptide validation data" | column: Emax; pEC50

[24] = target: T10, NOP (OPRL1) (Homo sapiens, UniProt P41146); experiment: as above; assay type: cell-based; settings: mean, n = 3
T10 construct: host or cells: HTLA cells (HEK293-derived)
T10 sequence (P41146 whole entry): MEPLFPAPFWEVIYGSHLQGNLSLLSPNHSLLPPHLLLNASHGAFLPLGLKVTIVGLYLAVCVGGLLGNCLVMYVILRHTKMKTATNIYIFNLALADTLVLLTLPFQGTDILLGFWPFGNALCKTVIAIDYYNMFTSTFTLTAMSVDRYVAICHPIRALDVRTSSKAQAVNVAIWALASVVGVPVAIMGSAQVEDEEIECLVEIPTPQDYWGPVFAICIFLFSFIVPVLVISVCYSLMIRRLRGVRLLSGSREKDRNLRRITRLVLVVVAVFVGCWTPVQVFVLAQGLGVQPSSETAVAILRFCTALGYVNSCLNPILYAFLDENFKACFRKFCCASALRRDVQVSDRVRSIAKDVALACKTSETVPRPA
Text: as §5

[25] = target: T11, OPRD1 (Homo sapiens, UniProt P41143); experiment: as above; assay type: cell-based; settings: mean, n = 3
T11 construct: host or cells: HTLA cells (HEK293-derived)
T11 sequence (P41143 whole entry): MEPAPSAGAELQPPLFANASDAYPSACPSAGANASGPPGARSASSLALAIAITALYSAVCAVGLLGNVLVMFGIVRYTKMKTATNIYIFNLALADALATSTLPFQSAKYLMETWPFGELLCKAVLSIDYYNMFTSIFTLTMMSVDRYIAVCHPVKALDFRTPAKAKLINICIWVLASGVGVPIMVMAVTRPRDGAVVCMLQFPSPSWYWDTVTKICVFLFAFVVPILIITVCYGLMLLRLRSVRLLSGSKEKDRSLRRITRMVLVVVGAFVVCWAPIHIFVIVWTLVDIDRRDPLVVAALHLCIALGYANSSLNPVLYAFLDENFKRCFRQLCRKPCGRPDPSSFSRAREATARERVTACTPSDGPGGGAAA
Text: as §5

T1 sequence (P41145 whole entry): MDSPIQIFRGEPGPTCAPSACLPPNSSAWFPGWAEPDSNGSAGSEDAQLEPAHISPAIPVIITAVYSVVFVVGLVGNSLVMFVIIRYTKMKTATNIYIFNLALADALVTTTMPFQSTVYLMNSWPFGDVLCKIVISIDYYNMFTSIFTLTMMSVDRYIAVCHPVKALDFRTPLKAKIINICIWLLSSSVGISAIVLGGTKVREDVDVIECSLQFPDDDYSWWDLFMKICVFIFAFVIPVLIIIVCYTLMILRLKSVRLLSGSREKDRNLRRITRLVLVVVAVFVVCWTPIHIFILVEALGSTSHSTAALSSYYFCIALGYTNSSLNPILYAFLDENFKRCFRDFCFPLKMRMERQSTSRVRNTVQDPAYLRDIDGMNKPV

CSCC[C@H](NC(=O)[C@H](Cc1ccccc1)NC(=O)CNC(=O)CNC(=O)[C@@H](N)Cc1ccc(O)cc1)C(=O)N[C@@H](CCCNC(=N)N)C(=O)N[C@@H](CCCNC(=N)N)C(=O)N[C@H](C(=O)NCC(=O)N[C@@H](CCCNC(=N)N)C(=O)N1CCC[C@H]1C(=O)N[C@@H](CCC(=O)O)C(=O)N[C@@H](Cc1c[nH]c2ccccc12)C(=O)N[C@@H](Cc1c[nH]c2ccccc12)C(=O)N[C@@H](CCSC)C(=O)N[C@@H](CC(=O)O)C(=O)N[C@@H](Cc1ccc(O)cc1)C(=O)N[C@@H](CCC(N)=O)C(=O)N[C@@H](CCCCN)C(=O)N[C@@H](CCCNC(=N)N)C(=O)N[C@@H](Cc1ccc(O)cc1)C(=O)NCC(=O)NCC(=O)N[C@@H](Cc1ccccc1)C(=O)N[C@@H](CC(C)C)C(=O)O)C(C)C [Peptide 158, Peptide E] (H-YGGFMRRVGRPEWWMDYQKRYGGFL-OH)
Emax, Tango (fold over basal) ([1]; n = 3): 5.0 fold over basal | EC50 ([1]; n = 3, read-out: pEC50, Tango (fold over basal) (converted)): 1.35 µM | EC50 [2]: > 10 µM | EC50 ([2]; pEC50, DMR (peak), BB3, mean, SEM and n): 72.4 µM | Confirmation of known target in Tango [3]: kappa, mu | Emax, IP1 [4]: 164.0 nM | EC50 ([4]; pEC50, IP1 (nM)): 6760 nM | EC50 ([5]; BB3, mean, SEM and n, read-out: pEC50, Tango (fold over basal) (converted)): 93.3 µM | EC50 ([5]; HTLA cells transiently transfected, overnight stimulation, luciferase, mean ± SEM of 3-4 independent experiments in triplicate, read-out: pEC50, β-arrestin recruitment (Tango), BB3 (converted)): > 10 µM | Emax, Internalization (AUC) [6]: 16.0

KGGFSFRF [Peptide 31]
Emax, Tango (fold over basal) [7]: 1.7 fold over basal | pEC50, Tango (fold over basal) [7]: 8.61 | Comment, Tango (fold over basal) [8]: Response >1uM; part of QRFP43

Motilin
Confirmed? (confirmation of b-arrestin recruitment) [9]: Yes

NWTPQAMLYLKGAQ [Peptide 95]
Emax, Tango (fold over basal) [10]: 1.4 fold over basal | pEC50, Tango (fold over basal) [10]: 6.57

Neuropeptide S (SFRNGVGTGMKKTSFQRAKS)
Confirmed? (confirmation of b-arrestin recruitment) [11]: No

Neurotensin
Confirmed? (confirmation of b-arrestin recruitment) ([12]; Tango): Yes | Notes (b-arrestin recruitment response) ([12]; validation): Neurotensin not cyclized; weak activation in validation | Confirmed? (confirmation of b-arrestin recruitment) [13]: No

Nociceptin/orphanin FQ
Confirmed? (confirmation of b-arrestin recruitment) [14]: Yes

Orexin-B
Confirmed? (confirmation of b-arrestin recruitment) [15]: Yes

PACAP27 (peptide)
pEC50 at GPR55 (internalization or mass redistribution; assay not given) [16]: 9.51 pEC50

Peptide 141 (Osteocrin_(-2-19))
pEC50 in Tango β-arrestin recruitment assay [17]: 5.6 pEC50 | pEC50 in PathHunter β-arrestin recruitment assay [18]: 6.18 pEC50

Peptide YY (PYY)
Confirmed? (confirmation of b-arrestin recruitment) [19]: No

PrRP-31
Confirmed? (confirmation of b-arrestin recruitment) ([20]; endogenous ligand(s) included in peptide library, Tango): Yes | Notes (b-arrestin recruitment response) ([20]; screen and validation): No response in screen, small response in validation | pKi_value [21]: 9.2

RHVNHSATEALGELRERAPGQGTNGFQLLRHAV [Peptide 192]
Emax, Tango (fold over basal) [22]: 1.3 fold over basal | pEC50, Tango (fold over basal) [22]: 9.08

SFRNGVGSGVKKTSF [Peptide 107]
Emax, Tango (fold over basal) [23]: 2.2 fold over basal | pEC50, Tango (fold over basal) [23]: 6.03

TLGPQAHSLALQSVDLLFRP [Peptide 132]
Emax, Tango (fold over basal) [24]: 8.8 fold over basal | pEC50, Tango (fold over basal) [24]: 4.82

VLDQLSA [Peptide 25]
Emax, Tango (fold over basal) [25]: 5.0 fold over basal | pEC50, Tango (fold over basal) [25]: 5.58
